This note sets out measurements from patent US10807960B2, “Compounds, compositions, and methods for controlling biofilms” (KATHOLIEKE UNIVERSITEIT LEUVEN, priority 2015, dated 2020).

One series deals with C. albicans SC5314. Nature of the series: inhibition of C. albicans biofilms, cell titer blue (CTB) quantification. The series is classed as cell-based, Candida albicans. As to conditions: monospecies biofilm; novel compounds: highest concentration tested 100 μM. On the procedure:
The potential of the compounds to prevent C. albicans SC5314 biofilm formation was assessed using the cell titer blue (CTB) quantification method (26). For the CTB method, an overnight culture of C. albicans SC5314 was washed with PBS and a cell suspension of 10^6 cells/ml (OD600=0.1) was prepared in RPMI 1640 medium (pH 7.0). […] After 16 h of static incubation at 37° C., biofilms were washed and quantified with CTB as described previously.

For series [1], the system named is C. albicans SC5314 + S. epidermidis. Nature of the series: mixed C. albicans/S. epidermidis biofilm assay, selective plating. The series is classed as cell-based, Candida albicans; Staphylococcus epidermidis. The note with it: for activity at 25 µM: 25 μM (Table 5); for activity at 100 µM: 100 μM (Table 5). On the procedure: The concentrations 25 μM (0.0625% DMSO or ethanol) and 100 μM (0.25% DMSO or ethanol) were tested. After 24 h of incubation at 37° C., biofilms were washed with PBS and fresh medium with or without compounds was added. After further incubation for 48 h at 37° C., the biofilms were washed with PBS after which the cells were re-suspended in 100 μl of PBS by scraping off, sonication (1 min, 45 kHz, USC300-T; VWR, Radnor, Pa., USA) and vigorously pipetting up-and-down. Finally, the biofilm cells were diluted in PBS and plated on YPD agar plates containing 100 mg/L ampicillin and TSA plates containing 25 mg/L amphotericin B, to determine the number of fungal and bacterial CFUs after 2 days of incubation at 37° C., respectively. The percentage of C. albicans SC5314 and S. epidermidis cells was determined relative to the DMSO or ethanol control treatment.

The test system of series [2] is osteoblasts (OB). The experiment in a line: mammalian-cell viability assay, trypan blue staining. The series is classed as cell-based. As to conditions: 12.5 μM; for proliferation (in words): 6 days exposure. On the procedure: (§1) Cell viability of two human primary cell types, namely, osteoblasts (OB) and bone-marrow derived mesenchymal stem cells (MSC) was tested according to the ISO 10993-5 standard, as previously described. Briefly, cells were seeded in 96-well tissue culture test plates (TPP, Switzerland) at 5×10^3 cells/cm^2 in Advanced DMEM cell culture media supplemented with 10% serum, 1× GlutaMAX, 0.05 mg/mL Gentamycin, and were allowed to attach overnight. The next day, the cells were exposed to (i) cell culture medium and medium with the corresponding control (0.5% ethanol or DMSO) (negative controls), (ii) medium with 0.05% phenol (cytotoxic control), and (iii) medium with compounds (12.5 μM) and incubated for 2 h, 48 h and 6 days (8 repeats for each condition). At each time-point the numbers of viable and dead cells were determined directly by trypan blue staining, and indirectly by measuring the metabolic activity with MTT (3-(4,5-dimethylthiazol-2-yl)-2,5-diphenyltetrazolium bromide) staining.
(§2) The medium was removed from the wells, and 1/3 trypan blue in Dulbecco's modified Eagle's medium (DMEM) was added to the cells, incubated for 3 min, after which trypan blue was removed and DMEM medium was added to the wells. In each of four wells, two microscopy fields were counted for viable (transparent) and dead (blue) cells.

Series [3] deals with bone-marrow derived mesenchymal stem cells (MSC). Nature of the series: metabolic activity, MTT staining. The series is classed as cell-based. As to conditions: 12.5 μM, 6 days treatment. On the procedure:
as §1
(§3) The medium was removed from the wells and 100 μl of medium, supplemented with 10% serum and 0.5 mg/mL MTT was added to the cells. The cells were incubated overnight at 37° C. and 5% CO2. The next day the medium with MTT was removed and 100 μl acidic isopropanol was added. The cells were then centrifuged at 2300 g and 50 μl of the supernatant was transferred to a new 96-well plate. The absorbance was measured at 570 nm and the background was measured at 660 nm. Four wells per condition were examined.

The test system of series [4] is osteoblasts (OB). The experiment in a line: metabolic activity, MTT staining. The note with it: 12.5 μM, 6 days treatment. The series is classed as cell-based. On the procedure: as §1, §3
Series [5] relates to bone-marrow derived mesenchymal stem cells (MSC). The experiment in a line: osteogenic differentiation, calcium and DNA assay. The series is classed as cell-based, human. As to conditions: 12.5 μM, calcium content normalized by DNA, versus solvent control. On the procedure:
(§4) The effect on osteogenic differentiation potential was assessed as previously described. Only the substances that allowed survival of the cells for more than 3 weeks, which is the time needed for mature osteogenic differentiation, were tested. Briefly, osteoblasts and bone-marrow derived mesenchymal stem cells were cultured in a positive solvent control (osteogenic medium with 0.5% DMSO or ethanol background), a negative control (medium without osteogenic supplements) and treated samples (osteogenic medium, 0.5% DMSO or ethanol background and 12.5 μM of test compound) with four repeats per condition. Mesenchymal stem cells and osteoblast cell cultures were harvested after 3 or 5 weeks, respectively, for the calcium and DNA assay.
(§5) Calcium deposition of osteoblasts and mesenchymal stem cells was measured with the Calcium CPC LiquiColor test (Stanbio Laboratory, Boerne, Tex.) as previously described. Briefly, cell cultures were extracted with 5% trichloroacetic acid (500 μl per sample), O-cresolphtalein complex was added, and the calcium content was determined spectrophotometrically at 550 nm. DNA content was determined as previously described. DNA values were used to normalize the calcium content. Four wells per condition were examined, and two samples from each well were taken for each assay.

Series [6] deals with osteoblasts (OB). The experiment in a line: osteogenic differentiation, calcium and DNA assay. The note with it: 12.5 μM, calcium content normalized by DNA, versus solvent control. The series is classed as cell-based, human. On the procedure: as §4, §5
Series [7] relates to bone-marrow derived mesenchymal stem cells (MSC). Nature of the series: mammalian-cell viability assay, trypan blue staining. The class given is cell-based. As to conditions: 12.5 μM, 6 days exposure. On the procedure: as §1, §2
Where [8] appears, read: C. albicans in mixed biofilm with S. epidermidis, read-out: CFUs % survival C.a.
[9] abbreviates: S. epidermidis in mixed biofilm with C. albicans, read-out: CFUs % survival S.c.
[10] abbreviates: S. epidermidis in mixed biofilm with C. albicans, read-out: CFUs % survival Se.

Where two headings read alike, the source gives them in different places.

Turning to `CCCCCCCCn1c(-c2ccc(Br)cc2)cnc1NCC(C)C` [Compound 8c, 5-(4-bromophenyl)-N-isobutyl-1-octyl-1H-imidazol-2-amine], the “anti-biofilm activity (in words)” value in the series with C. albicans SC5314 was “not active”. Also, the “effect on the C. albicans/S. epidermidis mixture (in words)” value in series [1] is listed as “only reduced C. albicans”. Also, in series [1] (setting [8]), the activity at 25 µM was 3.2%. Moreover, the activity at 100 µM in series [1] (setting [8]) is 8.4%. The “proliferation (in words)” value in the series with osteoblasts (OB) [2] is “increase in proliferation”. Moreover, the “cell viability (in words)” value with osteoblasts (OB) [2] (6 days of exposure, trypan blue) is “very slightly reduced viability”. Also, the “metabolic activity compared to the solvent control (in words)” value (in series [3]; in the series on osteoblasts (OB) [4]) was “increased” in each case. Also, the “calcium deposition (in words)” value (in series [5]; in the series with osteoblasts (OB) [6]) was “induced the calcium deposition” each time.

On to `CCCCCCCCn1c(-c2ccc(Cl)c(Cl)c2)cnc1NCC(C)C` [Compound 8d, 5-(3,4-dichlorophenyl)-N-isobutyl-1-octyl-1H-imidazol-2-amine], for which the “anti-biofilm activity (in words)” value in the series on C. albicans SC5314 is reported as “not active”. In addition, the “effect on the C. albicans/S. epidermidis mixture (in words)” value in series [1] is reported as “only reduced C. albicans”. For the same compound, the activity at 25 µM in series [1] (setting [8]) turned out to be 2.5%. In addition, the activity at 100 µM in series [1] (setting [8]) was found to be 1.4%. Moreover, the “proliferation (in words)” value (in series [7]; in the series on osteoblasts (OB) [2]) was “increase in proliferation” in each case. Also, the “metabolic activity compared to the solvent control (in words)” value (in series [3]; in the series with osteoblasts (OB) [4]) was “increased” in each case. Further, the “calcium deposition (in words)” value (in series [5]; with osteoblasts (OB) [6]) was “none of the compounds negatively affected the calcium deposition” in each case.

Regarding `CCCCCCCCn1c(-c2ccc(Br)cc2)cnc1NC1CCCC1` [Compound 8g, 5-(4-bromophenyl)-N-cyclopentyl-1-octyl-1H-imidazol-2-amine], the values for the activity at 25 µM in series [1] (setting [8]) and in series [1] (setting [9]) were 3.3% and 0%, respectively. For the same compound, the activity at 100 µM in series [1] (setting [8]) came out at 5.9%; in series [1] (setting [10]) it was 0%. For the same compound, the figures for the “proliferation (in words)” value (in series [7]; in the series with osteoblasts (OB) [2]) were “slightly reduced” and “increase in proliferation”, respectively. Further, the “metabolic activity compared to the solvent control (in words)” value (in series [3]; in the series on osteoblasts (OB) [4]) was “increased” throughout. The “calcium deposition (in words)” value (in series [5]; with osteoblasts (OB) [6]) was “induced the calcium deposition” in each case.

Turning to `CCCCCCCCn1c(-c2ccc(Cl)c(Cl)c2)cnc1NC1CCCC1` [Compound 8h, 5-(3,4-dichlorophenyl)-N-cyclopentyl-1-octyl-1H-imidazol-2-amine], the “anti-biofilm activity (in words)” value in the series on C. albicans SC5314 is “not active”. The activity at 25 µM was 6.7% in series [1] (setting [8]) and 2% in series [1] (setting [9]). Also, the activity at 100 µM amounted to 3.5% in series [1] (setting [8]) and 2.2% in series [1] (setting [10]). Moreover, the “proliferation (in words)” value in the series on osteoblasts (OB) [2] is recorded as “increase in proliferation”. In addition, the “metabolic activity compared to the solvent control (in words)” value (in series [3]; with osteoblasts (OB) [4]) was “increased” throughout. The “calcium deposition (in words)” value (in series [5]; with osteoblasts (OB) [6]) was “induced the calcium deposition” each time.
